According to ChEMBL document CHEMBL1125940 (Bioorg Med Chem Lett, 1991):
Positions of bridges follow the written chain, without caps; N, C: chain ends. Residues, ends and D or L forms follow the SMILES beside them.

Organism: Oryctolagus cuniculus
Test: Percent of endothelin-1 induced contraction of carotid arteries isolated from New Zealand white rabbits, tested at 1 uM concentration of compound
Assay type: functional

| SMILES | Contraction [%] |
| --- | --- |
| CSCC[C@@H]1NC(=O)[C@H](CC(C)C)NC(=O)[C@H](CO)NC(=O)[C@H](CO)NC(=O)[C@@H]2CSSC[C@H](NC(=O)[C@H](CCC(=O)O)NC(=O)[C@H](CCCCN)NC(=O)[C@H](CC(=O)O)NC1=O)C(=O)N[C@@H](C(C)C)C(=O)N[C@@H](Cc1ccc(O)cc1)C(=O)N[C@@H](Cc1ccccc1)C(=O)N[C@H](C(=O)N[C@@H](Cc1c[nH]cn1)C(=O)N[C@@H](CC(C)C)C(=O)N[C@@H](CC(=O)O)C(=O)N[C@@H](C)C(=O)N[C@@H](C)C(=O)N[C@@H](Cc1c[nH]c3ccccc13)C(=O)O)CSSC[C@H](N)C(=O)N[C@@H](CO)C(=O)N2 (H-CSCSSLMDKECVYFCHLDAAW-OH; disulfide 1-15, 3-11) | 50 |
| CC[C@H](C)[C@H](NC(=O)[C@H](CC(=O)O)NC(=O)[C@H](CC(C)C)NC(=O)[C@H](Cc1c[nH]cn1)NC(=O)[C@@H]1CSSC[C@H](N)C(=O)N[C@@H](CO)C(=O)N[C@H]2CSSC[C@H](NC(=O)[C@H](C)NC(=O)[C@H](CCCCN)NC(=O)[C@H](CC(=O)O)NC(=O)[C@H](CCSC)NC(=O)[C@H](CC(C)C)NC(=O)[C@H](CO)NC(=O)[C@H](CO)NC2=O)C(=O)N[C@@H](C(C)C)C(=O)N[C@@H](Cc2ccc(O)cc2)C(=O)N[C@@H](Cc2ccccc2)C(=O)N1)C(=O)N[C@H](C(=O)N[C@@H](Cc1c[nH]c2ccccc12)C(=O)O)[C@@H](C)CC (H-CSCSSLMDKACVYFCHLDIIW-OH; disulfide 1-15, 3-11) | 7 |
| CC[C@H](C)[C@H](NC(=O)[C@H](CC(=O)O)NC(=O)[C@H](CC(C)C)NC(=O)[C@H](Cc1c[nH]cn1)NC(=O)[C@@H]1CSSC[C@H](N)C(=O)N[C@@H](CO)C(=O)N[C@H]2CSSC[C@H](NC(=O)[C@H](CCC(=O)O)NC(=O)[C@H](CCCCN)NC(=O)[C@H](CC(=O)O)NC(=O)[C@H](CCSC)NC(=O)[C@H](CC(C)C)NC(=O)[C@H](CO)NC(=O)[C@H](CO)NC2=O)C(=O)N[C@@H](C(C)C)C(=O)N[C@@H](Cc2ccc(O)cc2)C(=O)N[C@@H](C)C(=O)N1)C(=O)N[C@H](C(=O)N[C@@H](Cc1c[nH]c2ccccc12)C(=O)O)[C@@H](C)CC (H-CSCSSLMDKECVYACHLDIIW-OH; disulfide 1-15, 3-11) | 6 |
| CC[C@H](C)[C@H](NC(=O)[C@H](CC(=O)O)NC(=O)[C@H](CC(C)C)NC(=O)[C@H](Cc1c[nH]cn1)NC(=O)[C@@H]1CSSC[C@H](NC(C)=O)C(=O)N[C@@H](CO)C(=O)N[C@H]2CSSC[C@H](NC(=O)[C@H](CCC(=O)O)NC(=O)[C@H](CCCCN)NC(=O)[C@H](CC(=O)O)NC(=O)[C@H](CCSC)NC(=O)[C@H](CC(C)C)NC(=O)[C@H](CO)NC(=O)[C@H](CO)NC2=O)C(=O)N[C@@H](C(C)C)C(=O)N[C@@H](Cc2ccc(O)cc2)C(=O)N[C@@H](Cc2ccccc2)C(=O)N1)C(=O)N[C@H](C(=O)N[C@@H](Cc1c[nH]c2ccccc12)C(=O)O)[C@@H](C)CC | 36 |
| CC[C@H](C)[C@H](NC(=O)[C@H](CC(=O)O)NC(=O)[C@H](CC(C)C)NC(=O)[C@H](Cc1c[nH]cn1)NC(=O)[C@@H]1CSSC[C@H](N)C(=O)N[C@@H](CO)C(=O)N[C@H]2CSSC[C@H](NC(=O)[C@H](CCC(=O)O)NC(=O)[C@H](CCCCN)NC(=O)[C@H](C)NC(=O)[C@H](CCSC)NC(=O)[C@H](CC(C)C)NC(=O)[C@H](CO)NC(=O)[C@H](CO)NC2=O)C(=O)N[C@@H](C(C)C)C(=O)N[C@@H](Cc2ccc(O)cc2)C(=O)N[C@@H](Cc2ccccc2)C(=O)N1)C(=O)N[C@H](C(=O)N[C@@H](Cc1c[nH]c2ccccc12)C(=O)O)[C@@H](C)CC (H-CSCSSLMAKECVYFCHLDIIW-OH; disulfide 1-15, 3-11) | 60 |
